Source: publication PMC10343887, “Structural Optimization of BIPPO Analogs as Potent Antimalarials” (Molecules, 2023)

Assays:
P. falciparum = experiment: Antimalarial screening against asexual blood stage P. falciparum; assay type: cell-based, Plasmodium falciparum
Method: Previously, Howard et al. reported (sub)micromolar activity against P. falciparum for a series of BIPPO analogs with benzyl substituents. To further understand the structure–activity relationship (SAR) of this interesting scaffold, close analogs of 3 with substituents at R^1–R^4 positions were tested against P. falciparum and human MRC-5 cells as the control for non-specific toxicity (Table 1).
The assay for antimalarial activity was carried out as described in detail in Pereira et al..

human MRC-5 cells = experiment: Non-specific toxicity control on human MRC-5 cells; assay type: cell-based
[1] = Non-specific toxicity control on human MRC-5 cells; assay type: cell-based; conditions: human MRC-5 cells; average values n ≥ 2, s.d. < 0.3; read-out: MRC-5 pIC50 (converted)
[2] = Metabolic stability in mouse liver microsomes (S9 fraction); assay type: in vitro ADME; conditions: for metabolic stability relative to diclofenac: mouse Phase I assay; for metabolic stability in mouse liver microsomes (in words) / parent compound left: mouse liver microsomes; for parent compound left: one hour of incubation
Method: (§1) Thus, compounds 23, 28–30, 47a and 47b with high potencies (pIC50 > 6) were evaluated for their in vitro metabolic stability in human and mouse liver microsomes (S9 fraction) with diclofenac as a reference compound. As summarized in Figure 2, substituents in the R^4 position affect metabolic stability. […] Their stability against mouse liver microsomes is lower, especially for their Phase I metabolism; only 38% and 26% of the parent compounds are left for 23 and 29 after one hour of incubation. […] For the adamantanyl analogs 30, 47a and 47b, metabolic stability differs drastically, with Phase I identified as the main metabolic pathway. Analog 47b was metabolized for >95% within 30 min with mouse liver microsomes, while 90% of 47a (tert-butyl analog) was left after one hour of incubation.
(§2) The assay for metabolic stability in human and mouse liver microsomal fractions (S9) was performed as described.

[3] = Metabolic stability in human liver microsomes (S9 fraction); assay type: in vitro ADME; conditions: one hour incubation, Phase I and Phase II metabolism
Method: as §1, §2

[4] = potency against asexual blood stage of P. falciparum, average values n ≥ 2, s.d. < 0.3

metabolic stability relative to diclofenac [2]	metabolic stability in mouse liver microsomes (in words) [2]	parent compound left ([2]; Phase I metabolism) [%]	parent compound remaining [3]	IC50 (P. falciparum; Plasmodium falciparum, potency against asexual blood stage of P. falciparum, average values n ≥ 2, s.d. < 0.3, read-out: P. fal pIC50 (converted)) [µM]	parent compound left ([2]; phase not given) [%]	Molecule	fold decreased antimalarial potency compared to 3 (P. falciparum; P. falciparum, relative to 3)	P. fal pIC50 (P. falciparum; [4])	MRC-5 pIC50 (human MRC-5 cells; human MRC-5 cells, average values n ≥ 2, s.d. < 0.3)	fold potency increase compared with 3 (P. falciparum; P. falciparum, relative to 3)	IC50 [1] [µM]	toxicity for human MCR-5 cells (in words) (human MRC-5 cells)
	favorable metabolic stability		more than 50%	< 1	68	CC(C)c1n[nH]c2c(=O)[nH]c(C3CCC(F)(F)CC3)nc12 [compound 28, 5-(4,4-Difluorocyclohexyl)-3-isopropyl-1,6-dihydro-7H-pyrazolo[4,3-d]pyrimidin-7-one]		6.0			> 63.1	
metabolized faster than diclofenac	favorable metabolic stability	26	more than 50%			CC(C)c1n[nH]c2c(=O)[nH]c(C34CCC(CC3)CC4)nc12 [compound 29, 5-(Bicyclo[2.2.2]octan-1-yl)-3-isopropyl-1,6-dihydro-7H-pyrazolo[4,3-d]pyrimidin-7-one]					> 63.1	
metabolized faster than diclofenac						CC(C)c1n[nH]c2c(=O)[nH]c(C34CC5CC(CC(C5)C3)C4)nc12 [compound 30, 5-(Adamantan-1-yl)-3-isopropyl-1,6-dihydro-7H-pyrazolo[4,3-d]pyrimidin-7-one]				eight	> 63.1	without showing noticeable toxicity

Continued, molecule first:

Molecule	metabolic stability relative to diclofenac [2]	metabolic stability in mouse liver microsomes (in words) [2]	parent compound left ([2]; Phase I metabolism) [%]	parent compound remaining [3]	IC50 (P. falciparum; Plasmodium falciparum, potency against asexual blood stage of P. falciparum, average values n ≥ 2, s.d. < 0.3, read-out: P. fal pIC50 (converted)) [µM]	parent compound left ([2]; phase not given) [%]	fold decreased antimalarial potency compared to 3 (P. falciparum; P. falciparum, relative to 3)	P. fal pIC50 (P. falciparum; [4])	MRC-5 pIC50 (human MRC-5 cells; human MRC-5 cells, average values n ≥ 2, s.d. < 0.3)	fold potency increase compared with 3 (P. falciparum; P. falciparum, relative to 3)	IC50 [1] [µM]	toxicity for human MCR-5 cells (in words) (human MRC-5 cells)
5-(Benzyloxy)-3-isopropyl-1,6-dihydro-7H-pyrazolo[4,3-d]pyrimidin-7-one [compound 5]							5- to 25 fold	5.2	< 4.2			
CC(C)c1n[nH]c2c(=O)[nH]c(C3CCCCC3)nc12 [compound 23, 5-Cyclohexyl-3-isopropyl-1,6-dihydro-7H-pyrazolo[4,3-d]pyrimidin-7-one]	metabolized faster than diclofenac	favorable metabolic stability	38	more than 50%						five	> 63.1	
